Measured values published in patent US11833139B2 (priority 2019, dated 2023).
Like-named read-outs stand apart in the source and are kept apart here.

Experiments:
A. baumannii ACC00445 = tested on: A. baumannii ACC00445
Method: (§1) A. baumannii clinical isolates were stored at −80° C. as 20% (v/v) in glycerol stock cultures.
(§2) Selective agar plates were prepared using RPMI powder (Sigma R7755) dissolved at 10.3 g/L with agar at 15 g/L and boiled until complete agar melting. After cooling the media to 45° C., 0.3 g/L L-glutamine (Sigma G7513), 25 mM HEPES (Gibco 15630-056) and 10% (v/v) FCS (Gibco 10500-064) were added.
(§3) The culture inocula were prepared from a bacterial NaCl suspension at 0.5 McFarland diluted 200-times in 100 mL of RPMI (Sigma R8758)+10% FCS in 500 mL flasks to reach ˜5×10^5 CFU/mL. The flasks were incubated for 24 h at 37° C. under shaking at 220 rpm. After incubation, the cells were pelleted by centrifugation (10 min, 7000 rpm at RT) and re-suspended in 1 mL PBS. […] After incubation at 35° C. for 24 h colonies were counted, and the frequency of resistance was calculated as the ratio between the number of colonies growing on plates with antibiotic and the total colony count of the inocula.

A. baumannii HUMC-1 = conditions: HUMC-1, rifabutin 0.1 mg/L
Method: as §1, §2, §3

A. baumannii LAC-4 = tested on: A. baumannii LAC-4
Method: as §1, §2, §3

A. baumannii UNT091 = tested on: A. baumannii UNT091
Method: as §1, §2, §3

A. baumannii UNT238 = tested on: A. baumannii UNT238
Method: as §1, §2, §3

[1] = tested on: five clinical A. baumannii strains; conditions: rifabutin concentrations of ≥2 mg/L
Method: as §1, §2, §3

A. baumannii = assay: Target exposures (PK/PD index, sigmoid Emax model) for 1-log reduction in lung CFUs; format: in vivo

**Q.** With `CO[C@H]1/C=C/O[C@@]2(C)Oc3c(C)c(O)c4c(c3C2=O)C2=NC3(CCN(CC(C)C)CC3)NC2=C(NC(=O)/C(C)=C\C=C\[C@H](C)[C@H](O)[C@@H](C)[C@@H](O)[C@@H](C)[C@H](OC(C)=O)[C@@H]1C)C4=O` [rifabutin] as the compound, how does the “Frequency of Mutational Resistance (FoR)” value (A. baumannii ACC00445; ACC00445, rifabutin 0.02 mg/L) read?
**A.** Its value is 1.10E−05.

**Q.** And the “Frequency of Mutational Resistance (FoR)” value (A. baumannii ACC00445; ACC00445, rifabutin 0.2 mg/L)?
**A.** The value was 8.10E−06.

**Q.** And the “Frequency of Mutational Resistance (FoR)” value (A. baumannii ACC00445; ACC00445, rifabutin 2 mg/L)?
**A.** Its value is 2.40E−09.

**Q.** And the “Frequency of Mutational Resistance (FoR)” value (A. baumannii ACC00445; ACC00445, rifabutin 20 mg/L)?
**A.** The value was 5.70E−09.

**Q.** What about the “Frequency of Mutational Resistance (FoR)” value (A. baumannii HUMC-1) of the same compound?
**A.** Its value is 1.70E−05.

**Q.** And the “Frequency of Mutational Resistance (FoR)” value (A. baumannii LAC-4; LAC-4, rifabutin 0.2 mg/L)?
**A.** Its value is 7.00E−05.

**Q.** And the “Frequency of Mutational Resistance (FoR)” value (A. baumannii LAC-4; LAC-4, rifabutin 2 mg/L)?
**A.** Its value is 5.00E−09.

**Q.** What about the “Frequency of Mutational Resistance (FoR)” value (A. baumannii LAC-4; LAC-4, rifabutin 20 mg/L) of the same compound?
**A.** Its value is 4.20E−09.

**Q.** What about the “Frequency of Mutational Resistance (FoR)” value (A. baumannii UNT091; UNT091, rifabutin 0.02 mg/L) of the same compound?
**A.** Its value is 7.80E−06.

**Q.** What about the “Frequency of Mutational Resistance (FoR)” value (A. baumannii UNT091; UNT091, rifabutin 0.2 mg/L) of the same compound?
**A.** Its value is 6.40E−06.

**Q.** And the “Frequency of Mutational Resistance (FoR)” value (A. baumannii UNT091; UNT091, rifabutin 2 mg/L)?
**A.** The value was 7.10E−09.

**Q.** And the “Frequency of Mutational Resistance (FoR)” value (A. baumannii UNT091; UNT091, rifabutin 20 mg/L)?
**A.** Its value is 7.80E−09.

**Q.** What about the “Frequency of Mutational Resistance (FoR)” value (A. baumannii UNT238; UNT238, rifabutin 0.2 mg/L) of the same compound?
**A.** Its value is 2.30E−05.

**Q.** And the “Frequency of Mutational Resistance (FoR)” value (A. baumannii UNT238; UNT238, rifabutin 2 mg/L)?
**A.** Its value is 8.80E−10.

**Q.** And the “Frequency of Mutational Resistance (FoR)” value (A. baumannii UNT238; UNT238, rifabutin 20 mg/L)?
**A.** The value was 1.60E−08.

**Q.** What about the “frequency of mutational resistance” value [1] of the same compound?
**A.** Its value is ~10^−9.

**Q.** What about the “Target AUC required to treat” value (A. baumannii; MIC 0.5 mg/L) of the same compound?
**A.** The value was 5.74 mg·h/L.

**Q.** And the “Target Cmax required to treat” value (A. baumannii; MIC 0.5 mg/L)?
**A.** The value was 1.30 mg/L.

**Q.** And the “Target AUC required to treat” value (A. baumannii; MIC 1 mg/L)?
**A.** Its value is 11.48 mg·h/L.

**Q.** And the “Target Cmax required to treat” value (A. baumannii; MIC 1 mg/L)?
**A.** Its value is 2.59 mg/L.

**Q.** And the “Target AUC required to treat” value (A. baumannii; MIC 2 mg/L)?
**A.** The value was 22.96 mg·h/L.

**Q.** And the “Target Cmax required to treat” value (A. baumannii; MIC 2 mg/L)?
**A.** Its value is 5.19 mg/L.
